Reference: US20090313718A1, “POLYNUCLEOTIDES ENCODING CARYOPHYLLENE SYNTHASE AND USES THEREOF” (priority 2006, published 2009)
Entries after “also recorded” stand apart in the source; their conditions may differ. Like-named read-outs stand apart in the source and are kept apart here.

How the values were obtained:
Cotesia marginiventris = experiment: Four-arm olfactometer assay with parasitoid females; assay type: in vivo; settings: odor vs pure air
Method: FIG. 9 provides evidence that the parasitic wasp Cotesia marginiventris is attracted by (E)-β-caryophyllene after previous oviposition experience. Responses of the parasitic wasp Cotesia marginiventris to (E)-β-caryophyllene: The attraction of parasitoid females to a pure standard of (E)-β-caryophyllene was tested in a four-arm olfactometer. Two groups of parasitoids were tested: naïve wasps and wasps with a previous oviposition experience on host larvae in the presence of (E)-β-caryophyllene. The parasitoids were tested in groups of six (n=14).
9. […] On the next day, recovered nematodes were counted. • To test the above ground role of (E)-β-caryophyllene in attracting herbivore enemies, S. littoralis caterpillars and the solitary endoparasitoid Cotesia marginiventris were reared as described by Turlings et al. (2004). […] The experiment was repeated seven times. • The behavioral responses of parasitoids and entomopathogenic nematodes to (E)-β-caryophyllene were analyzed with a log-linear model corrected for the expected distribution within the olfactometer (Turlings et al. 2004). The model was fitted by maximum quasilikelihood estimation in the software package R (Version 2.4.0) and its adequacy was assessed through likelihood ratio statistics and examination of residuals. […]

[1] = system: adult females of D. v. virgifera; settings: in vivo; cited from earlier work
pathogens = settings: cited from earlier work
Heterorhabditis megidis = experiment: Belowground six-arm olfactometer assay; assay type: in vivo
Method: 9. Bioassays • Attraction of the nematode Heterorhabditis megidis toward (E)-β-caryophyllene was tested with belowground six-arm olfactometer assays (Rasmann et al., 2005). The apparatus consisted of a central glass chamber with six evenly distributed side arms that connect it to six glass pots. The entire system was filled with moist sand (10% water). An aliquot of 0.2 μl of authentic (E)-β-caryophyllene (98% pure; Sigma-Aldrich) was injected into one of the glass pots and the five untreated pots were used as controls. About 2000 H. megidis were released in a drop of water in the centre of the central arena. […] On the next day, recovered nematodes were counted. • To test the above ground role of (E)-β-caryophyllene in attracting herbivore enemies, S. littoralis caterpillars and the solitary endoparasitoid Cotesia marginiventris were reared as described by Turlings et al. (2004). […] The experiment was repeated seven times. • The behavioral responses of parasitoids and entomopathogenic nematodes to (E)-β-caryophyllene were analyzed with a log-linear model corrected for the expected distribution within the olfactometer (Turlings et al. 2004). The model was fitted by maximum quasilikelihood estimation in the software package R (Version 2.4.0) and its adequacy was assessed through likelihood ratio statistics and examination of residuals. […]

TPS23-Del [2] = biological target: T1, TPS23-Del (Zea mays, UniProt B2C4D0); experiment: Substrate specificity and product identification of recombinant TPS23 (SPME, GC-MS); assay type: biochemical, maize (Zea mays L.); design: For expression with a N-terminal 8×His tag the ORF of tps23 was amplified; 8xHis (N); made in house; host or cells: E. coli BL21 (DE3), vector pHIS8-3; settings: recombinant His-tagged TPS23-Del from E. coli BL21 (DE3)
T1 sequence (B2C4D0 1-547): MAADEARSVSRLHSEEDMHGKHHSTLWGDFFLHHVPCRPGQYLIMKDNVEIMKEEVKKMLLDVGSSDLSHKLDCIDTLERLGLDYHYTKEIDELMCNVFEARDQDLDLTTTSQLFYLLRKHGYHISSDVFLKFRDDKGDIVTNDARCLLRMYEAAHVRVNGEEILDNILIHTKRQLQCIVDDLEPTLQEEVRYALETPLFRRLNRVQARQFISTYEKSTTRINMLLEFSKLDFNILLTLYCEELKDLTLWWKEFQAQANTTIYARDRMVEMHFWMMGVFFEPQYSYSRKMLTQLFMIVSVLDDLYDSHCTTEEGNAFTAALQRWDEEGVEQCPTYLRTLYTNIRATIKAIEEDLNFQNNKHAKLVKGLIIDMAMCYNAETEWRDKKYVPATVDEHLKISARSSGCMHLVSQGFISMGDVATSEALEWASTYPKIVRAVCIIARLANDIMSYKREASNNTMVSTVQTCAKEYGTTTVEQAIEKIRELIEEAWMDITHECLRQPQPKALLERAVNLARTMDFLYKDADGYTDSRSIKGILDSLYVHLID
Method: (§1) The construct was introduced into the E. coli strain BL21 (DE3) and fully sequenced to avoid errors introduced by DNA amplification. Liquid cultures of the bacteria harboring the expression constructs were grown at 37° C. to an OD600 of 0.6. Then, isopropyl-β-thiogalactopyranoside was added to a final concentration of 1 mM, and the cultures were incubated for 20 hours at 18° C. The cells were collected by centrifugation and disrupted by a 4×30 s treatment with a sonicator (Bandelin UW2070) in chilled extraction buffer (50 mM Mopso, pH 7.0, with 5 mM MgCl2, 5 mM sodium ascorbate, 0.5 mM PMSF, 5 mM dithiothreitol and 10% (v/v) glycerol). The cell fragments were removed by centrifugation at 14,000 g and the supernatant was desalted into assay buffer (10 mM Mopso, pH 7.0, 1 mM dithiothreitol, 10% (v/v) glycerol) by passage through a Econopac 10DG column (BioRad, Hercules, Calif., USA). For kinetic studies the His-tagged enzyme was further purified on a nickel-nitrilotriacetate agarose column (Qiagen, Heidelberg, Germany) according to manufacturer's instructions.
Assay for Terpene Synthase Activity • To determine the catalytic activity of the terpene synthase TPS23, enzyme assays containing 50 μl of the bacterial extract and 50 μl assay buffer with 10 μM (E,E)-FPP, 10 mM MgCl2, 0.05 mM MnCl2, 0.2 mM NaWO4 and 0.1 mM NaF in a Teflon-sealed, screw-capped 1 ml GC glass vial were performed. A SPME (solid phase microextraction) fiber consisting of 100 μm Polydimethylsiloxane (SUPELCO, Belafonte, Pa., USA) was placed into the headspace of the vial for 1 h incubation at 30° C. […] Assay results are reported as the mean of three independent replicate assays, and each experiment was repeated 2-3 times with similar results. […] The concentration of the purified protein was determined by the method of Bradford (1976) using the BioRad reagent with BSA as standard.
Gas Chromatography • A Hewlett-Packard model 6890 gas chromatograph was employed with the carrier gas He at 1 ml min^−1, splitless injection (injector temperature—220° C.), a Chrompack CP-SIL-5 CB-MS column ((5%-phenyl)-methylpolysiloxane, 25 m×0.25 mm i.d.×0.25μ film thickness, Varian, USA) and a temperature program from 40° C. (3-min hold) at 5° C. min^−1 to 240° C. (3 min hold). The coupled mass spectrometer was a Hewlett-Packard model 5973 with a quadrupole mass selective detector, transfer line temperature—230° C., source temperature—230° C., quadrupole temperature—150° C., ionization potential—70 eV and a scan range of 40-350 atomic mass units. Products were identified by comparison of retention times and mass spectra with authentic reference compounds. […]

TPS23-Del [3] = biological target: T1, TPS23-Del; experiment: Kinetic and metal ion cofactor assay with purified TPS23 and tritium-labeled FPP
Method: as §1
(§2) Assay for Terpene Synthase Activity • To determine the catalytic activity of the terpene synthase TPS23, enzyme assays containing 50 μl of the bacterial extract and 50 μl assay buffer with 10 μM (E,E)-FPP, 10 mM MgCl2, 0.05 mM MnCl2, 0.2 mM NaWO4 and 0.1 mM NaF in a Teflon-sealed, screw-capped 1 ml GC glass vial were performed. […] The assay was overlaid with 1 ml pentane to trap volatile products and incubated for 20 min at 30° C. The reaction was stopped by mixing, and 0.5 ml of the pentane layer was taken for measurement of radioactivity by liquid scintillation counting in 2 ml Lipoluma cocktail (Packard Bioscience, Groningen, The Netherlands) using a Packard Tricarb 2300TR liquid scintillation counter (^3H efficiency=61%). […] Assay results are reported as the mean of three independent replicate assays, and each experiment was repeated 2-3 times with similar results. The Km values were determined using seven substrate concentrations with four repetitions each. […] The concentration of the purified protein was determined by the method of Bradford (1976) using the BioRad reagent with BSA as standard.
(§3) To determine the biochemical properties of TPS23-Del, the purified enzyme was incubated with tritium-labeled FPP and the assays performed under the appropriate conditions.

[4] = stored at −80° C.
[5] = substrate: CC(C)=CCC/C(C)=C/CC/C(C)=C/CO[P@@](=O)(O)OP(=O)(O)O; experiment: purified protein, by the assay type; settings: other: FPP as substrate, TPS23-Del heterologously expressed in E. coli
Method: as §1, §2, §3

[6] = read-out: Km of divalent metal ion cofactor, TPS23-Del heterologously expressed in E. coli

Molecule: C=C1CC/C=C(\C)CC[C@@H]2[C@@H]1CC2(C)C [(E)-β-caryophyllene]
- attraction of experienced wasps (Cotesia marginiventris; females with previous oviposition experience on host larvae in the presence of (E)-β-caryophyllene): significant preference; also recorded: preferred air carrying (E)-β-caryophyllene to pure air
- attraction of naïve wasps (Cotesia marginiventris; females without oviposition experience): did not show this preference; also recorded: not attracted
- attractiveness to adult females of D. v. virgifera [1]: reported attractiveness
- anti-microbial activity (pathogens): has anti-microbial activity
- nematodes recovered from spiked arm compared to average of the five arms not spiked (Heterorhabditis megidis; 0.2 μl injected into one pot, 24 h after release of about 2000 H. megidis): Approximately twice
- attraction of nematodes (Heterorhabditis megidis; six-arm olfactometer filled with moist sand, spiked arm vs five control arms): significantly larger number; also recorded: attracts

Molecule: CC(C)=CCC/C(C)=C/COP(=O)(O)OP(=O)(O)O [GPP, geranyl diphosphate]
- acceptance as substrate (TPS23-Del [2]): does not accept; also recorded: did not accept

Molecule: [Mg+2] [Mg^2+]
- enzyme activity with divalent cation (TPS23-Del [3]; 10 mM): substantial activities
- Km (TPS23-Del [3]; [6]): 183 ± 34 µM

Molecule: CN1CCCCC1CCN1c2ccccc2Sc2ccc([S+](C)[O-])cc21 (stereo not shown) [TPS23-Del]
- time enzyme activity was stable [4]: at least 1 month

Molecule: [Mn+2] [Mn^2+]
- enzyme activity with divalent cation (TPS23-Del [3]; 0.25 mM): substantial activities
- Km (TPS23-Del [3]; [6]): 28 ± 6 µM

Molecule: CC(C)=CCC/C(C)=C/CC/C(C)=C/CC/C(C)=C/COP(=O)(O)OP(=O)(O)O [GGPP, geranylgeranyl diphosphate]
- acceptance as substrate (TPS23-Del [2]): does not accept; also recorded: did not accept

Molecule: CC(C)=CCC/C(C)=C/CC/C(C)=C/CO[P@@](=O)(O)OP(=O)(O)O [FPP, (E,E)-farnesyl diphosphate]
- Km (TPS23-Del [3]; read-out: Km value for FPP, purified enzyme, tritium-labeled FPP): 2.4 ± 0.4 µM

B1: TPS23-Del (Zea mays) (protein)
chain: T1 sequence (B2C4D0 1-547)
- Km ([5]; 0.25 mM MnCl2): 1.1 ± 0.3 µM
- Km ([5]; 10 mM MgCl2): 3.7 ± 0.5 µM
